From patent US20200030355A1, “COMBINATION THERAPY FOR TREATING CANCER” (Epizyme, Inc., priority 2014, published 2020) come the findings set out here.

Test [1] concerns MOLM-13 (MLL-AF9). The test can be described thus: EPZ-5676 7-day pre-treatment, then second compound 72 hours, growth inhibition GI100 shift; primary screen and retest (Example 7). Format: cell-based, human. As to conditions: second compound 72 hours; for Combination with EPZ-5676, MOLM-13 (MLL-AF9) Retest: 150 nM EPZ-5676 7-day pre-treatment, Cell Titer Glo; for Combination with EPZ-5676, MOLM-13 (MLL-AF9) Primary screen: 300 nM EPZ-5676 7-day pre-treatment, ATPLite. Here is the method: (§1) Cells were then equilibrated in incubators for 24 hours before treatment with a second compound. Treated assay plates were incubated with a second compound for 72 hours. After this time, plates were developed for endpoint analysis using ATPLite to measure ATP content, which is used as an indicator of cell viability.
(§2) Cells were then treated with a second compound for 72 hours. After this time, plates were developed for endpoint analysis using Cell Titer Glo to measure ATP content, which is used as an indicator of cell viability.
(§3) “N/D” means the GI100 of the second compound could not be determined for both conditions and “-” means not tested.
(§4) Growth Inhibition (GI) as a measure of cell viability: The cell viability of vehicle was measured at the time of dosing the second agent (T0) and after seventy-two hours (T72). […] A GI 200% represents complete death of all cells in the culture well. Compounds reaching an activity plateau of GI 200% are considered cytotoxic. GI is calculated by applying the following test and equation: […]
(§5) where T is the signal measure for a test article, V is the vehicle-treated control measure, and V0 is the vehicle control measure at time zero.
(In general: Cellular ATP, detected with luciferase, serves as a proxy for viable cell number.)

The subject of a further test is SKM-1 (non-MLLr). Described as above. The format is cell-based, human. As to conditions: 300 nM EPZ-5676 7-day pre-treatment; for Combination with EPZ-5676, SKM-1 (non-MLLr) Retest: Cell Titer Glo. The procedure: as §1, §2, §3, §4, §5
In the next test the test system is OCI-AML-4 (MLL-ENL). The description is as above. As to conditions: 300 nM EPZ-5676 7-day pre-treatment, second compound 72 hours; for Combination with EPZ-5676, OCI-AML-4 (MLL-ENL) Retest: Cell Titer Glo. Format: cell-based. The procedure:
as §1, §2, §3, §4, §5

Test [2] relates to MOLM-13 (MLL-AF9). The test can be described thus: Combination proliferation study with Compound A2 (ATP/CellTiter-Glo, Chou-Talalay combination index). As to conditions: 7 Day Cotreatment Model, Table 5. The format is cell-based, human. The procedure: The acute myelogenous leukemia cell lines MV4-11 (MLL-AF4) and MOLM-13 (MLL-AF9) were obtained from American Type Culture Collection (ATCC; Rockville, Md.) and Deutsche Sammlung von Mikroorganismen and Zellkulturen (DSMZ; Braunschweig, Germany) respectively.
Studies were performed using MLL-rearranged cell lines in vitro to evaluate the anti-proliferative effect of a combination of two agents together on cell growth. Initial proliferation studies were performed to determine the IC50 of a given compound in each cell line. The cell counts were measured by ATP quantitation using the Promega Cell Titer Glo kit and luminescence values corresponded to the amount of ATP in a given well.
Compounds were evaluated for synergy in the co-treatment phase by testing the compounds in a concentration range which was bracketed around their IC50 values. The compounds were plated to a 96 well plate in a matrix format (FIG. 3) which includes increasing concentrations of each drug in the combination in a constant ratio, in addition to the effect of each compound alone in the study. Cells were seeded and grown in the log-linear phase for 3 or 7 days in the co-treatment phase. Minimum inhibition (DMSO alone) controls were used in each plate to calculate fraction affected (Fa) of a test well. DMSO concentration was kept at 0.1% v/v.
The drug combination analysis was performed utilizing the Chou-Talalay method Synergy was determined using the software package Calcusyn by Biosoft. The combination index (CI) is a quantitative term used to describe the level of synergy or antagonism in a given test system. A combination index less than one indicates synergy, and a CI greater than one indicates antagonism. Further, strong synergism is achieved when the CI value falls below 0.3.
Graphs representing values of combination index (CI) versus Fractional effect (Fa) known as Fa-CI plots were generated and synergy was evaluated. Drug synergy was statistically defined by CI values less than 1, antagonism by CI>1 and additive effect by CI equal to 1.
Graphs representing values of combination index (CI) versus Fractional effect (Fa) known as Fa-CI plots were generated and synergy was evaluated. Drug synergy was statistically defined by CI values less than 1, antagonism by CI>1 and additive effect by CI equal to 1. […]
Cell viability was measured via ATP content using CellTiter-Glo® (Promega).
Proliferation studies were performed using MOLM-13, MV4-11 and SKM-1 cell lines in vitro to evaluate the cancer cell killing effect of a combination of two agents together on cell growth. Initial proliferation studies were performed to determine the IC50 values of a given compound in each cell line. The cell counts were measured by ATP quantitation using the Promega Cell Titer Glo kit and luminescence values correspond to the amount of ATP in a given well. […]
Compounds evaluated for synergy in the co-treatment phase were tested in a range which was bracketed around the IC50's.

The next test has as its system MOLM-13 cells. The test can be described thus: EPZ-5676 300 nM 7-day pre-treatment, then second compound 72 hours, ATPLite, IC50 shift (Example 6). The format is cell-based, human. As to conditions: 300 nM EPZ-5676 or DMSO 7-day pre-treatment, then 2nd compound 72 hours, Synergy = IC50 of 2nd compound decreased by 2-fold or more vs DMSO control. Here is the method: as §1
(§6) “N/D” means that IC50 of the second compound could not be determined for both conditions.

A further test deals with SKM-1 cells. Described as above. Format: cell-based, human. As to conditions: SKM-1 cells; 300 nM EPZ-5676 or DMSO 7-day pre-treatment, then 2nd compound 72 hours, ATPLite; Synergy = IC50 of 2nd compound decreased by 2-fold or more vs DMSO control. Here is the method:
as §1, §6

On to `Cn1cnc2c(F)c(Nc3ccc(Br)cc3F)c(C(=O)NOCCO)cc21` [Binimetinib (MEK-162), Binimetinib], for which the “Combination with EPZ-5676, MOLM-13 (MLL-AF9) Retest” value (from here on “Combination … (MLL-AF9) Retest”) with MOLM-13 (MLL-AF9) [1] is recorded as “Synergy (considered synergistic if the GI100 (Growth inhibition 100) value of the second compound decreased by 2-fold or more when EPZ-5676 was added as compared to the DMSO control)”. In the test on SKM-1 (non-MLLr), the “Combination with EPZ-5676, SKM-1 (non-MLLr) Retest” value (shortened to “Combination … (non-MLLr) Retest”) is recorded as “Synergy (considered synergistic if the GI100 (Growth inhibition 100) value of the second compound decreased by 2-fold or more when EPZ-5676 was added as compared to the DMSO control)”. Also, the “Combination with EPZ-5676, OCI-AML-4 (MLL-ENL) Retest” value (shortened to “Combination … (MLL-ENL) Retest”) in the test with OCI-AML-4 (MLL-ENL) is listed as “Synergy (considered synergistic if the GI100 (Growth inhibition 100) value of the second compound decreased by 2-fold or more when EPZ-5676 was added as compared to the DMSO control)”.

Consider `Cn1nccc1Nc1nccc(-c2ccn([C@H](CO)c3ccc(Cl)c(F)c3)c(=O)c2)n1` [GDC0994], for which, in the test on SKM-1 (non-MLLr), the “Combination … (non-MLLr) Retest” value is on record as “Synergy (considered synergistic if the GI100 (Growth inhibition 100) value of the second compound decreased by 2-fold or more when EPZ-5676 was added as compared to the DMSO control)”. In addition, the “Combination … (MLL-ENL) Retest” value in the test with OCI-AML-4 (MLL-ENL) is given as “Synergy (considered synergistic if the GI100 (Growth inhibition 100) value of the second compound decreased by 2-fold or more when EPZ-5676 was added as compared to the DMSO control)”.

Turning to `NC1(c2ccc(-c3nc4ccn5c(=O)[nH]nc5c4cc3-c3ccccc3)cc2)CCC1` [MK2206], the “Combination with Compound A2, MOLM13” value in the test on MOLM-13 (MLL-AF9) [2] is reported as “Additive (additive effect by CI equal to 1)”. Further, the “MOLM-13 (summary of combination study: EPZ-5676 + 2nd compound)” value with MOLM-13 cells is “Synergy (considered synergistic if the IC50 value of the second compound decreased by 2-fold or more when EPZ-5676 was added as compared to the DMSO control)”. Moreover, the “SKM-1 (summary of combination study: EPZ-5676 + 2nd compound)” value in the test on SKM-1 cells is “Synergy (considered synergistic if the IC50 value of the second compound decreased by 2-fold or more when EPZ-5676 was added as compared to the DMSO control)”.

As for `Cn1c(Nc2ccc(C(F)(F)F)cc2)nc2cc(Oc3ccnc(-c4ncc(C(F)(F)F)[nH]4)c3)ccc21` [RAF265], the “Combination with EPZ-5676, MOLM-13 (MLL-AF9) Primary screen” value (from here on “Combination … (MLL-AF9) Primary screen”) in the test with MOLM-13 (MLL-AF9) [1] is on record as “Synergy (considered synergistic if the GI100 (Growth inhibition 100) value of the second compound decreased by 2-fold or more when EPZ-5676 was added as compared to the DMSO control)”.

Take `Cn1cnc2c(F)c(Nc3ccc(Br)cc3Cl)c(C(=O)NOCCO)cc21` [Selumetinib (AZD6244), Selumetinib]: the “MOLM-13 (summary of combination study: EPZ-5676 + 2nd compound)” value in the test on MOLM-13 cells is “Synergy (considered synergistic if the IC50 value of the second compound decreased by 2-fold or more when EPZ-5676 was added as compared to the DMSO control)”. Moreover, in the test with MOLM-13 (MLL-AF9) [1], the “Combination … (MLL-AF9) Retest” value is “Synergy (considered synergistic if the GI100 (Growth inhibition 100) value of the second compound decreased by 2-fold or more when EPZ-5676 was added as compared to the DMSO control)” and the “Combination … (MLL-AF9) Primary screen” value is on record as “Synergy (considered synergistic if the GI100 (Growth inhibition 100) value of the second compound decreased by 2-fold or more when EPZ-5676 was added as compared to the DMSO control)”. Moreover, the “Combination with EPZ-5676, SKM-1 (non-MLLr) Primary screen” value in the test with SKM-1 (non-MLLr) (ATPLite) was “Synergy (considered synergistic if the GI100 (Growth inhibition 100) value of the second compound decreased by 2-fold or more when EPZ-5676 was added as compared to the DMSO control)”. Moreover, the “Combination … (non-MLLr) Retest” value in the test on SKM-1 (non-MLLr) is reported as “Synergy (considered synergistic if the GI100 (Growth inhibition 100) value of the second compound decreased by 2-fold or more when EPZ-5676 was added as compared to the DMSO control)”. In addition, in the test on OCI-AML-4 (MLL-ENL) (ATPLite), the “Combination with EPZ-5676, OCI-AML-4 (MLL-ENL) Primary screen” value is given as “Synergy (considered synergistic if the GI100 (Growth inhibition 100) value of the second compound decreased by 2-fold or more when EPZ-5676 was added as compared to the DMSO control)”. In the test with OCI-AML-4 (MLL-ENL), the “Combination … (MLL-ENL) Retest” value is given as “Synergy (considered synergistic if the GI100 (Growth inhibition 100) value of the second compound decreased by 2-fold or more when EPZ-5676 was added as compared to the DMSO control)”.

Turning to `CNC(=O)c1cc(Oc2ccc(NC(=O)Nc3ccc(Cl)c(C(F)(F)F)c3)cc2)ccn1` [Sorafenib], the “MOLM-13 (summary of combination study: EPZ-5676 + 2nd compound)” value with MOLM-13 cells is “Synergy (considered synergistic if the IC50 value of the second compound decreased by 2-fold or more when EPZ-5676 was added as compared to the DMSO control)”. Also, in the test on MOLM-13 (MLL-AF9) [1], the “Combination … (MLL-AF9) Retest” value is reported as “Synergy (considered synergistic if the GI100 (Growth inhibition 100) value of the second compound decreased by 2-fold or more when EPZ-5676 was added as compared to the DMSO control)” and the “Combination … (MLL-AF9) Primary screen” value is recorded as “Synergy (considered synergistic if the GI100 (Growth inhibition 100) value of the second compound decreased by 2-fold or more when EPZ-5676 was added as compared to the DMSO control)”.

Regarding `CC(C)Nc1cc(-c2c[nH]c(C(=O)N[C@H](CO)c3cccc(Cl)c3)c2)c(Cl)cn1` [Ulixertinib], the “Combination … (MLL-AF9) Retest” value in the test on MOLM-13 (MLL-AF9) [1] is reported as “Synergy (considered synergistic if the GI100 (Growth inhibition 100) value of the second compound decreased by 2-fold or more when EPZ-5676 was added as compared to the DMSO control)”. Also, the “Combination … (non-MLLr) Retest” value in the test with SKM-1 (non-MLLr) is reported as “Synergy (considered synergistic if the GI100 (Growth inhibition 100) value of the second compound decreased by 2-fold or more when EPZ-5676 was added as compared to the DMSO control)”. For the same molecule, the “Combination … (MLL-ENL) Retest” value with OCI-AML-4 (MLL-ENL) is listed as “Synergy (considered synergistic if the GI100 (Growth inhibition 100) value of the second compound decreased by 2-fold or more when EPZ-5676 was added as compared to the DMSO control)”.
